Results as given in PubChem BioAssay AID1963980 (Molecular Pharmacology Branch, DTP, NCI, 2024).
pIC50: −log10 of the molar value. Each block holds one molecule with its values, some of them ahead of it.

Test system: 475296-252-R-J1-PDC spheroid viability
Test: Anticancer human tumor 475296-252-R-J1-PDC patient-derived rectal carcinoma cell line growth inhibition [PI3K]
Settings: spheroids with HUVEC and MSC; for pIC50: curve of first compound; for viability, T/C: stronger effect = lower value
In short: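 Multi-cell spheroids combine tumor cells with HUVEC and human MSCs, treated with targeted agents alone or with inavolisib, alpelisib, duvelisib or copanlisib. Concentrations fall in half-log steps from at or near clinical Cmax, or from 10 microM where Cmax is unknown; viability read-out.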
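Further: spheroids exposed to agents for seven days before readout.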

pIC50 (second compound 0.0316 µM): < 5.00
pIC50 (second compound 0.1 µM): < 5.00
pIC50 (second compound 0.316 µM): < 5.00
pIC50 (second compound 1 µM): < 5.00
pIC50 (second compound 3.16 µM): < 5.00
pIC50 (second compound 10 µM): < 5.00
Compound: CNC(=O)c1ccc(N2C(=S)N(c3ccc(C#N)c(C(F)(F)F)c3)C(=O)C2(C)C)cc1F + Cc1nc(NC(=O)N2CCCC2C(N)=O)sc1-c1ccnc(C(C)(C)C(F)(F)F)c1
viability, T/C (second compound 0.0316 µM, first compound 0.0316 µM): 101%
viability, T/C (second compound 0.0316 µM, first compound 0.1 µM): 88.1%
viability, T/C (second compound 0.0316 µM, first compound 0.316 µM): 98.8%
viability, T/C (second compound 0.0316 µM, first compound 1 µM): 87.7%
viability, T/C (second compound 0.0316 µM, first compound 3.16 µM): 95.7%
viability, T/C (second compound 0.0316 µM, first compound 10 µM): 95.2%
viability, T/C (second compound 0.1 µM, first compound 0.0316 µM): 102%
viability, T/C (second compound 0.1 µM, first compound 0.1 µM): 91.8%
viability, T/C (second compound 0.1 µM, first compound 0.316 µM): 99.6%
viability, T/C (second compound 0.1 µM, first compound 1 µM): 86.6%
viability, T/C (second compound 0.1 µM, first compound 3.16 µM): 111%
viability, T/C (second compound 0.1 µM, first compound 10 µM): 114%
viability, T/C (second compound 0.316 µM, first compound 0.0316 µM): 92.2%
viability, T/C (second compound 0.316 µM, first compound 0.1 µM): 101%
viability, T/C (second compound 0.316 µM, first compound 0.316 µM): 86.1%
viability, T/C (second compound 0.316 µM, first compound 1 µM): 104%
viability, T/C (second compound 0.316 µM, first compound 3.16 µM): 101%
viability, T/C (second compound 0.316 µM, first compound 10 µM): 108%
viability, T/C (second compound 1 µM, first compound 0.0316 µM): 90.5%
viability, T/C (second compound 1 µM, first compound 0.1 µM): 104%
viability, T/C (second compound 1 µM, first compound 0.316 µM): 95.6%
viability, T/C (second compound 1 µM, first compound 1 µM): 102%
viability, T/C (second compound 1 µM, first compound 3.16 µM): 89.8%
viability, T/C (second compound 1 µM, first compound 10 µM): 109%
viability, T/C (second compound 3.16 µM, first compound 0.0316 µM): 81.1%
viability, T/C (second compound 3.16 µM, first compound 0.1 µM): 104%
viability, T/C (second compound 3.16 µM, first compound 0.316 µM): 92.3%
viability, T/C (second compound 3.16 µM, first compound 1 µM): 98.1%
viability, T/C (second compound 3.16 µM, first compound 3.16 µM): 108%
viability, T/C (second compound 3.16 µM, first compound 10 µM): 97.5%
viability, T/C (second compound 10 µM, first compound 0.0316 µM): 80.8%
viability, T/C (second compound 10 µM, first compound 0.1 µM): 89.5%
viability, T/C (second compound 10 µM, first compound 0.316 µM): 104%
viability, T/C (second compound 10 µM, first compound 1 µM): 88%
viability, T/C (second compound 10 µM, first compound 3.16 µM): 98.9%
viability, T/C (second compound 10 µM, first compound 10 µM): 90.7%

pIC50 (second compound 0.0316 µM): < 5.52
pIC50 (second compound 0.1 µM): < 5.52
pIC50 (second compound 0.316 µM): 5.52
pIC50 (second compound 1 µM): 6.12
pIC50 (second compound 3.16 µM): 6.33
pIC50 (second compound 10 µM): 7.11
Compound: Cn1cnc2c(F)c(Nc3ccc(Br)cc3Cl)c(C(=O)NOCCO)cc21 + Cc1nc(NC(=O)N2CCCC2C(N)=O)sc1-c1ccnc(C(C)(C)C(F)(F)F)c1
viability, T/C (second compound 0.0316 µM, first compound 0.00949 µM): 102%
viability, T/C (second compound 0.0316 µM, first compound 0.03 µM): 81.9%
viability, T/C (second compound 0.0316 µM, first compound 0.0949 µM): 85.7%
viability, T/C (second compound 0.0316 µM, first compound 0.3 µM): 75.7%
viability, T/C (second compound 0.0316 µM, first compound 0.949 µM): 76.6%
viability, T/C (second compound 0.0316 µM, first compound 3 µM): 61.8%
viability, T/C (second compound 0.1 µM, first compound 0.00949 µM): 91.7%
viability, T/C (second compound 0.1 µM, first compound 0.03 µM): 78.7%
viability, T/C (second compound 0.1 µM, first compound 0.0949 µM): 93.2%
viability, T/C (second compound 0.1 µM, first compound 0.3 µM): 73.2%
viability, T/C (second compound 0.1 µM, first compound 0.949 µM): 74.6%
viability, T/C (second compound 0.1 µM, first compound 3 µM): 58%
viability, T/C (second compound 0.316 µM, first compound 0.00949 µM): 89.4%
viability, T/C (second compound 0.316 µM, first compound 0.03 µM): 89.8%
viability, T/C (second compound 0.316 µM, first compound 0.0949 µM): 73.4%
viability, T/C (second compound 0.316 µM, first compound 0.3 µM): 72.9%
viability, T/C (second compound 0.316 µM, first compound 0.949 µM): 64.3%
viability, T/C (second compound 0.316 µM, first compound 3 µM): 48.3%
viability, T/C (second compound 1 µM, first compound 0.00949 µM): 79.9%
viability, T/C (second compound 1 µM, first compound 0.03 µM): 89.3%
viability, T/C (second compound 1 µM, first compound 0.0949 µM): 69%
viability, T/C (second compound 1 µM, first compound 0.3 µM): 63.9%
viability, T/C (second compound 1 µM, first compound 0.949 µM): 47%
viability, T/C (second compound 1 µM, first compound 3 µM): 35.9%
viability, T/C (second compound 3.16 µM, first compound 0.00949 µM): 75.8%
viability, T/C (second compound 3.16 µM, first compound 0.03 µM): 73.6%
viability, T/C (second compound 3.16 µM, first compound 0.0949 µM): 66.2%
viability, T/C (second compound 3.16 µM, first compound 0.3 µM): 59.9%
viability, T/C (second compound 3.16 µM, first compound 0.949 µM): 36.4%
viability, T/C (second compound 3.16 µM, first compound 3 µM): 23.8%
viability, T/C (second compound 10 µM, first compound 0.00949 µM): 83.9%
viability, T/C (second compound 10 µM, first compound 0.03 µM): 67%
viability, T/C (second compound 10 µM, first compound 0.0949 µM): 45.6%
viability, T/C (second compound 10 µM, first compound 0.3 µM): 28.2%
viability, T/C (second compound 10 µM, first compound 0.949 µM): 18.7%
viability, T/C (second compound 10 µM, first compound 3 µM): 5.93%
